Publication PMC10845205, “Discovery of novel antibacterial agent for the infected wound treatment: all-hydrocarbon stapling optimization of LL-37” (Theranostics, 2024)
In brackets after ≈: the same amount, converted by molar mass. Positions of bridges follow the written chain, without caps; N, C: chain ends. Non-standard residues stand in square brackets, D forms with d. Residues, ends and D or L forms follow the SMILES beside them. S5 = C=CCCC[C@](C)(N)C(=O)O

Assays:
NIH-3T3 cell = settings: 24 h
Description: For development of the stapled KR-12 derivatives to treat bacterial infections in vivo, their cytotoxicity was examined via the CCK-8 assay, which could provide a quantitative assessment of cell viability based on the dehydrogenase activity. The mouse embryonic fibroblast NIH-3T3 cell was selected and incubated with various concentrations of KR-12 and its stapled derivatives.
Mouse embryonic fibroblast cells NIH-3T3 and mouse monocyte macrophage leukemia cells RAW264.7 were obtained from Shanghai Institute of Biochemistry and Cell Biology, Chinese Academy of Sciences. These two cells were maintained in DMEM and RPMI-1640, respectively. Both media were supplemented with 10% FBS and 1% 100 U/mL penicillin-streptomycin solution. Cells were maintained at 37 °C in a 5% CO2 and humidified incubator. Replace the culture medium every day until the cell grows to confluence. Cells were then treated with 0.25% trypsin–EDTA and split using fresh medium for either passage or analysis.
CCK-8 cell counting kit was utilized to examine the cytotoxicity of the linear and stapled peptides. NIH-3T3 cell was planked at a density of 1.5×10^4 cell/well in a 96 - well plate and incubated it for 24 hours at 37 °C. Cells were then treated with different concentrations of peptides in fresh DMEM and incubated for 24 hours before the addition of 10 μL CCK -8 and incubation for a further 1 hour. Measure the absorbance at 450nm using a microplate reader (BioTek, USA) and calculate the percentage of cell viability as: cell viability (%) = (Abspeptide-Absblank)/(Abscontrol-Absblank)×100%, where Abscontrol is the absorbance of cells treated with PBS and Abs blank is the absorbance of the cell-free medium. The data was fitted using the nonlinear regression within

E. faecalis = settings: 24 h
Description: (§1) According to the protocol of Clinical & Laboratory Standards Institute, the minimum inhibitory concentration (MIC) of the linear and stapled peptides against a panel of gram-positive and gram-negative bacteria was determined by the broth microdilution method. […]
(§2) Bacterial strains and culture
(§3) Bacterial type stains ATCC 25923 S. aureus, ATCC 12228 S. epidermidis, ATCC […]
(§4) aeruginosa and ATCC 13883 K. pneumoniae were obtained from Shanghai Bioresource Collection Center. The bacterial culture medium was purchased from Oxoid and autoclaved according to the instructions from manufacturer. The isolated strains were cultured in Mueller Hinton II broth and continuously shaken at 140 rpm for 18 hours to the middle of the exponential growth phase at 37 °C with an OD value of 0.4-0.5.
(§5) Bacterial suspensions with an OD value of 0.1, approximately […], were then diluted for further assays.
(§6) The minimal inhibition concentration (MIC) of the linear and stapled peptides was determined using the microbroth dilution method from the Clinical and Laboratory Standards Institute (CLSI)[2, 3]. Bacterial suspensions of 10 6 CFU/mL were prepared in MH-II broth and peptide solutions at varying concentrations were prepared in phosphate buffer saline (PBS). Then 50 μL peptide solution and 50 μL bacterial suspension were mixed in a 96 -well plate. Plates were incubated for 24 hours at 37 °C.
(§7) 10 μL AlamarBlue cell viability reagent (ThermoFisher Scientific, UK) was added to each well, then the plate was re -incubated for a further 2 hours at 37 °C. The MIC was recorded as the minimum concentration of peptides required to completely in hibit bacteria growth. For serum stability assessment, the peptide solutions were pre - incubated with 50% human serum for 4 h before the MIC determination. Experiments were performed in 3 independent measurements. […]

E. coli = settings: 24 h
Description: as §1, §2, §3, §4, §5, §6, §7

P. aeruginosa = settings: 24 h
Description: as §1, §2, §3, §4, §5, §6, §7

S. epidermidis = settings: 24 h
Description: as §1, §2, §3, §4, §5, §6, §7

A. baumannii = settings: 24 h
Description: as §1, §2, §3, §4, §5, §6, §7

S. aureus = settings: 24 h
Description: as §1, §2, §3, §4, §5, §6, §7

K. pneumoniae = settings: 24 h
Description: as §1, §2, §3, §4, §5, §6, §7

Serum stability assay = type: in vitro ADME, human; settings: human serum, 2 mg/mL peptide in pH 7.4 PBS mixed with serum 1:4, 37 °C, up to 48 h, RP-HPLC UV 220 nm, 3 independent measurements
Description: Maintaining high stability and presenting high compatibility in the complex physiological environment are important criterions for the clinical translation of AMPs. […] The derivatives were mixed with human serum in pH 7.4 PBS, simulating the degradation process of peptides by proteases in vivo. The percentages of intact derivatives were monitored and determined with time according to the PR-HPLC. […]
Serum stability of the linear and stapled peptides was examined by RP -HPLC as previously described. 2 mg/mL peptide solution was prepared in pH 7.4 PBS and incubated with human serum (Gemini, USA) to the final volume ratio of 1:4 at 37 °C.
At various time intervals, 50 μL mixture was added to 50 μL ethanol to terminate the enzymatic hydrolysis. After centrifugation at 10,000 rpm for 10 minutes under 4 °C, […]
the supernatant was collected and analyzed by RP-HPLC, with a UV detector monitored at 220 nm. Record the peak area of the intact peptide and calculate the percentage of remaining peptide based on the integrated area as, Peptide remaining (%) = peak area of remaining peptide/peak area of intact peptide×100%. […]

Row | SMILES | IC50 against NIH-3T3 cell (NIH-3T3 cell) | MIC E. faecalis (E. faecalis) | MIC E. coli (E. coli) | MIC P. aeruginosa (P. aeruginosa) | MIC S. epidermidis (S. epidermidis) | MIC A. baumannii (A. baumannii) | MIC S. aureus (S. aureus) | MIC K. pneumoniae (K. pneumoniae) | TD50 (time at which 50% of the peptide is degraded in the presence of serum) (Serum stability assay)
1 | CC(=O)N[C@@H](CCCCN)C(=O)N[C@@H](CCCNC(=N)N)C(=O)N[C@@]1(C)CCCC=CCCC[C@@](C)(C(=O)N[C@@H](CCCCN)C(=O)N[C@@H](CC(=O)O)C(=O)N[C@@H](Cc2ccccc2)C(=O)N[C@@H](CC(C)C)C(=O)N[C@@H](CCCNC(=N)N)C(N)=O)NC(=O)[C@H](CCCNC(=N)N)NC(=O)[C@H](CCC(N)=O)NC(=O)[C@H](C(C)C)NC1=O [KR-12 (I3, I7)] (Ac-KR[S5]VQR[S5]KDFLR-NH2; staple 3-7) | 145.7 µg/mL (≈ 89 µM) | 16 µg/mL (≈ 9.77 µM) | 16 µg/mL (≈ 9.77 µM) | 256 µg/mL (≈ 156 µM) | 64 µg/mL (≈ 39.1 µM) | 32 µg/mL (≈ 19.5 µM) | 8 µg/mL (≈ 4.89 µM) | 128 µg/mL (≈ 78.2 µM) | 4.21 h
2 | CC[C@H](C)[C@H](NC(=O)[C@H](CCCNC(=N)N)NC(=O)[C@H](CCCCN)NC(C)=O)C(=O)N[C@H](C(=O)N[C@@H](CCC(N)=O)C(=O)N[C@@H](CCCNC(=N)N)C(=O)N[C@@]1(C)CCCC=CCCC[C@@](C)(C(=O)N[C@@H](CCCNC(=N)N)C(N)=O)NC(=O)[C@H](Cc2ccccc2)NC(=O)[C@H](CC(=O)O)NC(=O)[C@H](CCCCN)NC1=O)C(C)C [KR-12 (I7, L11)] (Ac-KRIVQR[S5]KDF[S5]R-NH2; staple 7-11) | 212.8 µg/mL (≈ 130 µM) | 32 µg/mL (≈ 19.5 µM) | 32 µg/mL (≈ 19.5 µM) | 256 µg/mL (≈ 156 µM) | 128 µg/mL (≈ 78.2 µM) | 64 µg/mL (≈ 39.1 µM) | 32 µg/mL (≈ 19.5 µM) | 256 µg/mL (≈ 156 µM) | 11.44 h
3 | CC[C@H](C)[C@@H]1NC(=O)[C@H](CCCNC(=N)N)NC(=O)[C@@](C)(NC(=O)[C@@H](NC(=O)[C@@H](NC(=O)[C@H](CCCNC(=N)N)NC(=O)[C@H](CCCCN)NC(C)=O)[C@@H](C)CC)C(C)C)CCCC=CCCC[C@@](C)(C(=O)N[C@@H](Cc2ccccc2)C(=O)N[C@@H](CC(C)C)C(=O)N[C@@H](CCCNC(=N)N)C(N)=O)NC(=O)[C@H](CCCCN)NC1=O [KR-12 (Q5, D9)] (Ac-KRIV[S5]RIK[S5]FLR-NH2; staple 5-9) | 168.5 µg/mL (≈ 104 µM) | 8 µg/mL (≈ 4.94 µM) | 8 µg/mL (≈ 4.94 µM) | 64 µg/mL (≈ 39.5 µM) | 16 µg/mL (≈ 9.88 µM) | 16 µg/mL (≈ 9.88 µM) | 8 µg/mL (≈ 4.94 µM) | 128 µg/mL (≈ 79 µM) | 8.91 h
4 | CC[C@H](C)[C@H](NC(=O)[C@]1(C)CCCC=CCCC[C@](C)(NC(=O)[C@H](CCCCN)NC(C)=O)C(=O)N[C@@H]([C@@H](C)CC)C(=O)N[C@@H](C(C)C)C(=O)N[C@@H](CCC(N)=O)C(=O)N1)C(=O)N[C@@H](CCCCN)C(=O)N[C@@H](CC(=O)O)C(=O)N[C@@H](Cc1ccccc1)C(=O)N[C@@H](CC(C)C)C(=O)N[C@@H](CCCNC(=N)N)C(N)=O [KR-12 (R2, R6)] (Ac-K[S5]IVQ[S5]IKDFLR-NH2; staple 2-6) | 78.3 µg/mL (≈ 50.5 µM) | 128 µg/mL (≈ 82.5 µM) | >256 µg/mL | > 256 µg/mL | 128 µg/mL (≈ 82.5 µM) | > 256 µg/mL | 128 µg/mL (≈ 82.5 µM) | > 256 µg/mL | 2.38 h
